Measured values published in ChEMBL document CHEMBL1275466, “Diversity of penicillin binding proteins among clinical Streptococcus pneumoniae strains from Portugal” (2008).
In brackets after ≈: the same amount, converted by molar mass.

Tests used:
Type in all cases: functional
[1] = test system: Streptococcus pneumoniae; assay: Antibacterial activity against Streptococcus pneumoniae serotype 3 URA3537 harboring mutant PBP1A
[2] = test system: Streptococcus pneumoniae; assay: Antibacterial activity against penicillin-resistant Streptococcus pneumoniae serotype 14 URA4731 harboring mutant PBP2B PBP2X and PBP1A
[3] = test system: Streptococcus pneumoniae; assay: Antibacterial activity against multidrug resistant Streptococcus pneumoniae serotype 23 URA3558 harboring mutant PBP2X and PBP1A
[4] = test system: Streptococcus pneumoniae; assay: Antibacterial activity against multidrug resistant Streptococcus pneumoniae serotype 19A ATCC 700673 harboring mutant PBP2B PBP2X and PBP1A
[5] = test system: Streptococcus pneumoniae; assay: Antibacterial activity against penicillin-resistant Streptococcus pneumoniae serotype 23F URA5391 harboring mutant PBP2B PBP2X and PBP1A
[6] = test system: Streptococcus pneumoniae; assay: Antibacterial activity against penicillin-cefotaxime- ceftriaxone-resistant Streptococcus pneumoniae serotype 14 URA3543 harboring mutant PBP2B PBP2X and PBP1A
[7] = test system: Streptococcus pneumoniae; assay: Antibacterial activity against Streptococcus pneumoniae serotype 22 URA2542 harboring PBP2B harboring mutant PBP2B PBP2X and PBP1A
[8] = test system: Streptococcus pneumoniae; assay: Antibacterial activity against multidrug resistant Streptococcus pneumoniae serotype 6B ATCC 700670 harboring mutant PBP2B PBP2X and PBP1A
[9] = test system: Streptococcus pneumoniae; assay: Antibacterial activity against multidrug resistant Streptococcus pneumoniae serotype 6B URA4566 harboring mutant PBP2B PBP2X and PBP1A
[10] = test system: Streptococcus pneumoniae; assay: Antibacterial activity against multidrug resistant Streptococcus pneumoniae serotype 19F URA3699 harboring mutant PBP2B PBP2X and PBP1A
[11] = test system: Streptococcus pneumoniae; assay: Antibacterial activity against multidrug resistant Streptococcus pneumoniae serotype 24F URA5450 harboring mutant PBP2B PBP2X and PBP1A
[12] = test system: Streptococcus pneumoniae; assay: Antibacterial activity against penicillin-cefotaxime- ceftriaxone-resistant Streptococcus pneumoniae URA6056 harboring mutant PBP2B PBP2X and PBP1A
[13] = test system: Streptococcus pneumoniae; assay: Antibacterial activity against tetracycline- erythromycin- clindamycin-resistant Streptococcus pneumoniae serotype 6B URA4376 harboring mutant PBP1A
[14] = test system: Streptococcus pneumoniae; assay: Antibacterial activity against penicillin-cefotaxime- ceftriaxone-resistant Streptococcus pneumoniae serotype 14 URA3043 harboring mutant PBP2B PBP2X and PBP1A
[15] = test system: Streptococcus pneumoniae; assay: Antibacterial activity against Streptococcus pneumoniae URA2543 harboring mutant PBP1A
[16] = test system: Streptococcus pneumoniae; assay: Antibacterial activity against multidrug resistant Streptococcus pneumoniae serotype 23F ATCC 51916 harboring mutant PBP2B PBP2X and PBP1A
[17] = test system: Streptococcus pneumoniae; assay: Antibacterial activity against Streptococcus pneumoniae R6
[18] = test system: Streptococcus pneumoniae; assay: Antibacterial activity against multidrug resistant Streptococcus pneumoniae serotype 19A URA5805 harboring mutant PBP2B PBP2X and PBP1A
[19] = test system: Streptococcus pneumoniae; assay: Antibacterial activity against erythromycin-resistant Streptococcus pneumoniae serotype 14 URA4933 harboring mutant PBP2X and PBP1A
[20] = test system: Streptococcus pneumoniae; assay: Antibacterial activity against penicillin-resistant Streptococcus pneumoniae serotype 19A URA3635 harboring mutant PBP2B PBP2X and PBP1A
[21] = test system: Streptococcus pneumoniae; assay: Antibacterial activity against multidrug resistant Streptococcus pneumoniae serotype 15A URA5779 harboring mutant PBP2B PBP2X and PBP1A
[22] = test system: Streptococcus pneumoniae; assay: Antibacterial activity against Streptococcus pneumoniae serotype 9V URA4929 harboring mutant PBP1A
[23] = test system: Streptococcus pneumoniae; assay: Antibacterial activity against multidrug resistant Streptococcus pneumoniae serotype 14 URA4203 harboring mutant PBP2B PBP2X and PBP1A
[24] = test system: Streptococcus pneumoniae; assay: Antibacterial activity against Streptococcus pneumoniae serotype 4 ATCC BAA-334 harboring mutant PBP1A
[25] = test system: Streptococcus pneumoniae; assay: Antibacterial activity against penicillin-resistant Streptococcus pneumoniae serotype 14 URA5128 harboring mutant PBP2B PBP2X and PBP1A
[26] = test system: Streptococcus pneumoniae; assay: Antibacterial activity against Streptococcus pneumoniae serotype 19F URA4087 harboring mutant PBP2X and PBP1A

CC1(C)S[C@@H]2[C@H](NC(=O)Cc3ccccc3)C(=O)N2[C@H]1C(=O)O [PENICILLIN G]
MIC [1]: 0.0125 µg/mL (≈ 0.0374 µM)
MIC [2]: 0.1 µg/mL (≈ 0.299 µM)
MIC [3]: 0.2 µg/mL (≈ 0.598 µM)
MIC [4]: 2 µg/mL (≈ 5.98 µM)
MIC [5]: 0.1 µg/mL (≈ 0.299 µM)
MIC [6]: 2 µg/mL (≈ 5.98 µM)
MIC [7]: 0.05 µg/mL (≈ 0.15 µM)
MIC [8]: 2 µg/mL (≈ 5.98 µM)
MIC [9]: 0.1 µg/mL (≈ 0.299 µM)
MIC [10]: 0.5 µg/mL (≈ 1.5 µM)
MIC [11]: 0.5 µg/mL (≈ 1.5 µM)
MIC [12]: 3.2 µg/mL (≈ 9.57 µM)
MIC [13]: 0.0125 µg/mL (≈ 0.0374 µM)
MIC [14]: 2 µg/mL (≈ 5.98 µM)
MIC [15]: 0.025 µg/mL (≈ 0.0748 µM)
MIC [16]: 0.1 µg/mL (≈ 0.299 µM)
MIC [17]: 0.0125 µg/mL (≈ 0.0374 µM)
MIC [18]: 1.6 µg/mL (≈ 4.78 µM)
MIC [19]: 0.0125 µg/mL (≈ 0.0374 µM)
MIC [20]: 0.1 µg/mL (≈ 0.299 µM)
MIC [21]: 0.1 µg/mL (≈ 0.299 µM)
MIC [22]: 0.0125 µg/mL (≈ 0.0374 µM)
MIC [23]: 1.6 µg/mL (≈ 4.78 µM)
MIC [24]: 0.0125 µg/mL (≈ 0.0374 µM)
MIC [25]: 0.5 µg/mL (≈ 1.5 µM)
MIC [26]: 0.025 µg/mL (≈ 0.0748 µM)
